Laboratory results as given in patent US7939111B2, “Lingonberry extract, methods of preparing, and uses thereof” (Beijing Gingko-Group Biological Technology Co., Ltd., priority 2007, dated 2011).
Values after ≈ are worked out from the molar mass of the structure shown.

Assays:
[1] = hydroxy radical scavenging, orthophenanthroline Fe2+ oxidation method; format: biochemical
Procedure: The first extract of lingonberry from Example 7, containing 5.2 wt % of anthocyanin, 22.3 wt % of proanthocyanin, and 0.5 wt % of resveratrol, was dissolved in double-distilled water and diluted into solutions in serial concentrations of 0.5, 0.25, 0.125, 0.0625, 0.03125, 0.015625, and 0.0078125 mg/ml. Ascorbic acid was likewise diluted to serial concentrations of 2, 1, 0.5, 0.25, 0.125, and 0.0625 mg/ml. The anti-oxidation effect of lingonberry extracts was confirmed by determining the hydroxyl radical (.OH) and the scavenging effect of the test drug on the hydroxy radical using the orthophenanthroline Fe^2+ oxidation method.
The total reaction volume was 4.7 ml, and thus the final concentrations of ascorbic acid solution were 0.851, 0.426, 0.213, and 0.106 mg/ml, while the final concentrations of lingonberry extract were 0.106, 0.053, 0.027, 0.013 mg/ml. Measurements were obtained for five samples in each group, and the scavenging rates of .OH were calculated and averaged. In order to verify the reliability of this method, ascorbic acid, a known .OH scavenging agent was used as a positive control when evaluating the scavenging effect of the lingonberry extract on hydroxy radicals during the experiment.
In the reaction system of these experiments, the aqueous solution of lingonberry extract could bind with hydroxy radicals generated in the Fenton reaction, thus reducing oxidation of Fe^2+ by hydroxy radicals. Its effect on scavenging hydroxy radicals was evaluated by determining the absorbance value of the reaction system.

yeast = settings: by activating Sir2 enzymatic expression; cited from earlier work

## O=C1O[C@H]([C@@H](O)CO)C(O)=C1O [ascorbic acid]
[1]; final concentration 0.106 mg/ml
  •OH scavenging rate (d): 24.44 ± 2.32
[1]; final concentration 0.213 mg/ml
  •OH scavenging rate (d): 25.55 ± 2.10
[1]; final concentration 0.426 mg/ml
  •OH scavenging rate (d): 40.49 ± 1.33
[1]; final concentration 0.851 mg/ml
  •OH scavenging rate (d): 91.92 ± 0.77
[1]; orthophenanthroline Fe2+ oxidation method
  IC50, hydroxy radical scavenging: 307.8 mg/L (≈ 1750 µM)

## Oc1ccc(C=Cc2cc(O)cc(O)c2)cc1 [resveratrol]
yeast
  increase of life span: about 70%
